# Results: patent US11833137B2, “Substituted chromenones, IRE1 inhibitors, and methods of using same” (The Wistar Institute, priority 2018, dated 2023)
# Experiments:
# CLL = settings: mouse, in vivo; cited from earlier work
# [1] = Fluorescence stability (decomposition) in aqueous solution; format: physicochemical; settings: PBS with 1% DMSO, 37° C., 48 h, from 100%
# Procedure: (FIG. 2B) 5TGM1 cells were treated with DMSO or with 20 μM 2, 4, 3, or 7 dissolved in DMSO for 3 days and subjected to XTT assays. Percentages of growth were determined by comparing treated groups with control groups (DMSO). Each data point derived from four independent groups receiving exactly the same treatment was plotted as mean±SD. Results are representative of three independent experiments. […] The values of I/I0 were plotted as a function of time and shown in the inset. I0 was the initial fluorescence intensity of 4 at 0 h. […] The values of I/I0 were plotted as a function of time and shown in the inset. I0 was the initial fluorescence intensity of 5 at 0 h. […] (FIG. 2G) The decomposition rates of 7 and 8 were plotted as a function of time in RPMI media incubated at 37° C. Aliquots were analyzed by HPLC and the peaks integrated.
# FIGS. 5A-5J illustrate the finding that installation of a boronate cage cleavable by H2O2 stabilizes the 1,3-dioxane acetal protective group of D-F07 to allow for temporal inhibition of XBP-1s upon contact with H2O2. (FIG. 5A) A scheme showing that installation of a boronate-caged group stabilizes the 1,3-dioxane acetal protective group to allow for H2O2-mediated release of intact D-F07. (FIG. 5B) The fluorescence of BC-D-F07a (2.5 μM in the DMSO/PBS solution (v/v=1:99), Ex=360 nm) increases upon incubation with 0 to 200 μM hydrogen peroxide at room temperature for 1 h. (FIG. 5C) The fluorescence of BC-D-F07b (2.5 μM in the DMSO/PBS solution (v/v=1:99), Ex=360 nm) increases upon incubation with 0 to 2 mM hydrogen peroxide at 37° C. for 1 h. […] I0 was the initial fluorescence intensity of D-F07, BC-D-F07a or BC-D-F07b at 0 h. (FIG. 5E) The levels of hydrogen peroxide produced by 5TGM1, 72-h LPS-stimulated primary CLL, MEC2, and WaC3 cells were measured by Amplex Red with or without the addition of extracellular catalase (500 U/mL). (FIG. 5F) 5TGM1 cells were treated with BC-D-F07a at increasing concentrations for 24 h, lysed, and analyzed for the expression of indicated proteins by immunoblots. (FIG. 5G) CD5+ CLL cells purified from spleens of Eμ-TCL1 mice were stimulated with […], subsequently treated with BC-D-F07a at 20 μM for 16 h, and then incubated with hydrogen peroxide at indicated concentrations for another 4 h. Cells were lysed and analyzed for the expression of indicated proteins by immunoblots. […] Cells were lysed and analyzed for the expression of indicated proteins by immunoblots. […] Percentages of growth were determined by comparing treated groups with control groups (DMSO). […]
# UV-vis and fluorescence spectra were carried out on a BioTek SYNERGY™ NEO2 instrument (96 well plate).
# WaC3 cells = settings: cited from earlier work
# secretory IgM, B cells = settings: cited from earlier work
smiles,measurement,setting,value
"O=c1oc2c(C3OCCCO3)c(O)ccc2c2c1CNCC2 [Compound 4, 7-(1,3-dioxan-2-yl)-8-hydroxy-1,2,3,4-tetrahydro-5H-chromeno[3,4-c]pyridin-5-one]",growth of CLL,CLL,retard the growth of CLL
same,fluorescence intensity remaining (decomposition),[1],5.1%
same,sensitivity of WaC3 cells,WaC3 cells,sensitive
same,production of sIgM by treated B cells,"secretory IgM, B cells",inefficient in producing sIgM
